# Where a SMILES comes first, the peptide text is derived from it. [ ]: non-standard residue; d: D form. Hyp = O=C(O)[C@@H]1C[C@@H](O)CN1; Orn = NCCC[C@H](N)C(=O)O
# Legend:
# E. coli 45849 = assay: Growth inhibition assay (MIC); assay type: cell-based, Escherichia coli; details: multidrug resistant strain; 1% TSB, 37° C., 20 hrs
# Procedure, shortened: (§1)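 Peptides were serially diluted two-fold in 1% TSB to give final concentrations from 125 μg/mL to 60 ng/mL. Bacteria grown overnight in nutrient broth at 37° C. were added at 5×10^6 CFU/mL. Plates were incubated 20 hrs at 37° C. and absorbance at 595 nm recorded.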
# S. typhi S5 = assay type: cell-based, Salmonella typhi; details: S5, 20 h
# Procedure, shortened: as §1
# E. coli D31 = assay type: cell-based, Escherichia coli; details: D31, 20 h
# Procedure, shortened: as §1
# K. Pneumonia 123132 = assay: Growth inhibition assay (MIC); assay type: cell-based, Klebsiella pneumoniae; details: multidrug resistant strain; 1% TSB, 37° C., 20 hrs
# Procedure, shortened: as §1
# [1] = tested on: K. Pneumonia K6, ATCC 700603; assay: Growth inhibition assay (MIC); assay type: cell-based, Klebsiella pneumoniae; details: multidrug resistant strain; 1% TSB, 37° C., 20 hrs
# Procedure, shortened: as §1
# [2] = tested on: S. enterica subsp. Enterica serovar. typhi G10215 ATCC 700408; assay type: cell-based, Salmonella enterica; details: ATCC 700408, 20 h
# Procedure, shortened: as §1
# [3] = tested on: R. radiobatter ATCC 15955; assay: Growth inhibition assay (MIC); assay type: cell-based, Rhizobium radiobacter; details: multidrug resistant strain; 1% TSB, 37° C., 20 hrs
# Procedure, shortened: as §1
# E. coli 10233 = assay type: cell-based, Escherichia coli; details: 10233, 20 h
# Procedure, shortened: (§2)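 Two-fold serial dilution in 1% TSB, final 125 μg/mL to 60 ng/mL; inoculum 5×10^6 CFU/mL (before 1:1 mixing with peptide). Incubated 20 hrs at 37° C., growth read as absorbance at 595 nm, in triplicate with sterile water as negative control.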
# E. coli 1103 = assay type: cell-based, Escherichia coli; details: 1103, 20 h
# Procedure, shortened: as §2
# K. pneumonia 681 = assay type: cell-based, Klebsiella pneumoniae; details: 20 h
# Procedure, shortened: as §2
# B. subtilis 347 = assay type: cell-based, Bactillus subtillis; details: 347, 20 h
# Procedure, shortened: as §2
structure (smiles),measurement,setting,value
CC[C@H](C)[C@H](NC(=O)[C@H](Cc1ccc(O)cc1)NC(=O)[C@@H](NC(=O)[C@@H]1CCCN1C(=O)[C@H](CCCNC(=N)N)NC(=O)[C@H](CC(N)=O)NC(=O)[C@H](CC(N)=O)NC(=O)[C@@H](N)CCCN)C(C)C)C(=O)N1CCC[C@H]1C(=O)N[C@@H](CCCNC(=N)N)C(=O)N1C[C@H](O)C[C@H]1C(=O)N[C@@H](CCCNC(=N)N)C(=O)N1CCC[C@H]1C(=O)N1CCC[C@H]1C(=O)N[C@@H](Cc1c[nH]cn1)C(=O)N1CCC[C@H]1C(=O)N[C@@H](CCCNC(=N)N)C(=O)N[C@@H](CC(C)C)C(N)=O [compound 45] (H-[Orn]NNRPVYIPR[Hyp]RPPHPRL-NH2),MIC E. coli 45849,E. coli 45849,1 µg/mL
same,MIC S. typhi S5,S. typhi S5,<0.5 µg/mL
same,MIC E. coli D31,E. coli D31,8 µg/mL
same,MIC K. Pneumonia 123132,K. Pneumonia 123132,4 µg/mL
same,"MIC K. Pneumonia K6, ATCC 700603",[1],4 µg/mL
same,MIC S. enterica subsp. Enterica serovar. typhi G10215 ATCC 700408,[2],2 µg/mL
same,MIC R. radiobatter ATCC 15955,[3],0.65 µg/mL
same,MIC E. coli 10233,E. coli 10233,1.95 to 3.91 µg/mL
same,MIC E. coli 1103,E. coli 1103,7.81 µg/mL
same,MIC K. pneumonia 681,K. pneumonia 681,7.81 µg/mL
same,MIC B. subtilis 347,B. subtilis 347,62.5 µg/mL

# — patent publication US20150315241A1, “Antibiotic Peptides” (priority 2007, published 2015)
